Data as given in US10717716B2, “1,3,4-oxadiazole derivative compounds as histone deacetylase 6 inhibitor, and the pharmaceutical composition comprising the same” (Chong Kun Dang Pharmaceutical Corp., priority 2015, dated 2020).

Target: T1, human recombinant HDAC6 (Homo sapiens, UniProt Q9UBN7)
T1 construct: purchased Calbiochem 382180
T1 sequence (Q9UBN7 1-1215): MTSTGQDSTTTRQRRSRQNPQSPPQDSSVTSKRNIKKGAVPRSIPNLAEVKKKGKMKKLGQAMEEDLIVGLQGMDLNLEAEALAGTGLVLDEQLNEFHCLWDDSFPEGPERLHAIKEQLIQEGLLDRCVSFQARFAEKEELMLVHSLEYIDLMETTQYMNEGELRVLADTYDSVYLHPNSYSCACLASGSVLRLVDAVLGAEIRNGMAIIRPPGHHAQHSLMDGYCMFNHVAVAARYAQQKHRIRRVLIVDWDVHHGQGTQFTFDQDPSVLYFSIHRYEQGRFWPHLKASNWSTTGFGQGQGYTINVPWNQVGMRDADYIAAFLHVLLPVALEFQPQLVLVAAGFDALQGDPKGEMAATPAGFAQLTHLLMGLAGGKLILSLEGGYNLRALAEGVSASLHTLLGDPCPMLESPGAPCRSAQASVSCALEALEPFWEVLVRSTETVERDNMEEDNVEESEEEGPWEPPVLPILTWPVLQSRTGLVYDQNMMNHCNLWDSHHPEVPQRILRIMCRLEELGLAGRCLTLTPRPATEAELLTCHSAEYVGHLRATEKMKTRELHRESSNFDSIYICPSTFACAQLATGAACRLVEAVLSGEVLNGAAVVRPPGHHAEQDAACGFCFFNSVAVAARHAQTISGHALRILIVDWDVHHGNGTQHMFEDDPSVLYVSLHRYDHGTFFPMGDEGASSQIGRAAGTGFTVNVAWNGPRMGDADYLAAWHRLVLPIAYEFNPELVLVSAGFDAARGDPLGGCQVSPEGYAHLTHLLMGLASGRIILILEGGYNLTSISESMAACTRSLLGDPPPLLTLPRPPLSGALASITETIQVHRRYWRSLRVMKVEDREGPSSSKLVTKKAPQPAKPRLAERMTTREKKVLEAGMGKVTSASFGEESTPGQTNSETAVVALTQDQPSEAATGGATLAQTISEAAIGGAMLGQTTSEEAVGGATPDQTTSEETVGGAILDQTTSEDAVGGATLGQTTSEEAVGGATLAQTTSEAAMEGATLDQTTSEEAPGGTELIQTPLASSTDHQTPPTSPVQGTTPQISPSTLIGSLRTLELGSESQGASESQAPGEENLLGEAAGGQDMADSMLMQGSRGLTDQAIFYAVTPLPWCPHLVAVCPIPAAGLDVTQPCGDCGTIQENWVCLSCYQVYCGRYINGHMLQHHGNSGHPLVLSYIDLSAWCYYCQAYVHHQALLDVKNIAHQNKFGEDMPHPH
Test: HDAC6 enzyme activity inhibition assay (HDAC Fluorimetric Drug Discovery Kit)
Type: biochemical
Conditions: for HDAC6 selectivity (fold): HDAC6 over HDAC1; for IC50: human recombinant HDAC6, same protocol as HDAC1, read-out: HDAC6
Method: In order to examine the HDAC6 selectivity of the compounds of formula I of the present invention by HDAC1 and HDAC6 enzymatic activity inhibition assays, an experiment was performed using a conventional substance as a control.
HDAC enzyme activity was measured using a HDAC Fluorimetric Drug Discovery Kit (BML-AK511, 516, Enzo Life Science). For the HDAC1 enzyme activity test, human recombinant HDAC1 (BML-SE456) was used as an enzyme source, and Fluor de Lys®-“SIRT1 (BNL-KI177) was used as a substrate. A 5-fold dilution of the compound was seeded into a 96-well plate, and then 0.3 μg of the enzyme and 10 μM of the substrate were added to each well of the plate and allowed to react at 30° C. for 60 minutes. Then, Fluor de Lys®-Developer II (BML-KI176) was added thereto and allowed to react for 30 minutes, after which the fluorescence value (Ex 360, Em 460) was measured using a multi-plate reader (Flexstation 3, Molecular Device). The HDAC6 enzyme was tested using human recombinant HDAC6 (382180) (Calbiochem) according to the same protocol as the HDAC1 enzyme activity test method. Based on the resulting values, each IC5, value was calculated using GraphPad Prism4.0 program.

SMILES	HDAC6 selectivity (fold)	IC50 [nM]
CN1CCN(C(=O)N(Cc2ccc(-c3nnc(C(F)(F)F)o3)cc2)c2ccccc2)CC1 [Compound 21285, 4-methyl-N-phenyl-N-(4-(5-(trifluoromethyl)-1,3,4-oxadiazol-2-yl)benzyl)piperazine-1-carboxamide]	91	110
O=C(N1CCOCC1)N(Cc1ccc(-c2nnc(C(F)(F)F)o2)cc1F)c1ccccc1 [Compound 21318, N-(2-fluoro-4-(5-(trifluoromethyl)-1,3,4-oxadiazol-2-yl)benzyl)-N-phenylmorpholine-4-carboxamide]	145	69
O=C(N1CCOCC1)N(Cc1ccc(-c2nnc(C(F)(F)F)o2)c(F)c1)c1ccccc1 [Compound 21319, N-(3-fluoro-4-(5-(trifluoromethyl)-1,3,4-oxadiazol-2-yl)benzyl)-N-phenylmorpholine-4-carboxamide]	52	192
O=C(N1CCOCC1)N(Cc1ccc(-c2nnc(C(F)F)o2)cc1)c1ccccc1 [Compound 21325, N-(4-(5-(difluoromethyl)-1,3,4-oxadiazol-2-yl)benzyl)-N-phenylmorpholine-4-carboxamide]	204	49
O=C(N1CCOCC1)N(Cc1ccc(CCc2nnc(C(F)(F)F)o2)cc1)c1ccccc1 [Compound 21327, N-phenyl-N-(4-(2-(5-(trifluoromethyl)-1,3,4-oxadiazol-2-yl)ethyl)benzyl)morpholine-4-carboxamide]	1	
O=C(N1CCOCC1)N(Cc1cccc(-c2nnc(C(F)(F)F)o2)c1)c1ccccc1 [Compound 21329, N-phenyl-N-(3-(5-(trifluoromethyl)-1,3,4-oxadiazol-2-yl)benzyl)morpholine-4-carboxamide]	1	
O=C(N1CCOCC1)N(Cc1ccc(-c2nnc(C(F)(F)F)o2)nc1)c1ccccc1 [Compound 21333, N-phenyl-N-((6-(5-(trifluoromethyl)-1,3,4-oxadiazol-2-yl)pyridin-3-yl)methyl)morpholine-4-carboxamide]	1	
O=C(N1CCOCC1)N(Cc1ccc(-c2nnc(C(F)(F)F)o2)cn1)c1ccccc1 [Compound 21336, N-phenyl-N-((5-(5-(trifluoromethyl)-1,3,4-oxadiazol-2-yl)pyridin-2-yl)methyl)morpholine-4-carboxamide]	105	95
O=C(N1CCOCC1)N(Cc1ccc(-c2nnc(C(F)F)o2)cc1F)c1ccccc1 [Compound 21337, N-(4-(5-(difluoromethyl)-1,3,4-oxadiazol-2-yl)-2-fluorobenzyl)-N-phenylmorpholine-4-carboxamide]	357	28
O=C(NC1CCC1)N(Cc1ccc(-c2nnc(C(F)(F)F)o2)cc1)c1ccccc1 [Compound 21340, 3-Cyclobutyl-1-phenyl-1-(4-(5-(trifluoromethyl)-1,3,4-oxadiazol-2-yl)benzyl)urea]	12	836
O=C(NC1CCCC1)N(Cc1ccc(-c2nnc(C(F)(F)F)o2)cc1)c1ccccc1 [Compound 21341, 3-Cyclopentyl-1-phenyl-1-(4-(5-(trifluoromethyl)-1,3,4-oxadiazol-2-yl)benzyl)urea]	8	1190
O=C(NC1CCCCC1)N(Cc1ccc(-c2nnc(C(F)(F)F)o2)cc1)c1ccccc1 [Compound 21342, 3-Cyclohexyl-1-phenyl-1-(4-(5-(trifluoromethyl)-1,3,4-oxadiazol-2-yl)benzyl)urea]	5	1990
COc1cc(-c2nnc(C(F)(F)F)o2)ccc1CN(C(=O)N1CCOCC1)c1ccccc1 [Compound 21343, N-(2-methoxy-4-(5-(trifluoromethyl)-1,3,4-oxadiazol-2-yl)benzyl)-N-phenylmorpholine-4-carboxamide]	1	10700
O=C(N1CCN(Cc2ccccc2)CC1)N(Cc1ccc(-c2nnc(C(F)(F)F)o2)cc1)c1ccccc1 [Compound 21344, 4-Benzyl-N-phenyl-N-(4-(5-(trifluoromethyl)-1,3,4-oxadiazol-2-yl)benzyl)piperazine-1-carboxamide]	12	830
COCCN1CCN(C(=O)N(Cc2ccc(-c3nnc(C(F)(F)F)o3)cc2)c2ccccc2)CC1 [Compound 21345, 4-(2-Methoxyethyl)-N-phenyl-N-(4-(5-(trifluoromethyl)-1,3,4-oxadiazol-2-yl)benzyl)piperazine-1-carboxamide]	54	185
CCN1CCN(C(=O)N(Cc2ccc(-c3nnc(C(F)(F)F)o3)cc2)c2ccccc2)CC1 [Compound 21346, 4-Ethyl-N-phenyl-N-(4-(5-(trifluoromethyl)-1,3,4-oxadiazol-2-yl)benzyl)piperazine-1-carboxamide]	58	173
CC(C)N1CCN(C(=O)N(Cc2ccc(-c3nnc(C(F)(F)F)o3)cc2)c2ccccc2)CC1 [Compound 21347, 4-Isopropyl-N-phenyl-N-(4-(5-(trifluoromethyl)-1,3,4-oxadiazol-2-yl)benzyl)piperazine-1-carboxamide]	55	183
O=C(N1CCOCC1)N(CCc1ccc(-c2nnc(C(F)(F)F)o2)cc1)c1ccccc1 [Compound 21348, N-phenyl-N-(4-(5-(trifluoromethyl)-1,3,4-oxadiazol-2-yl)phenethyl)morpholine-4-carboxamide]	1	8360
O=C(N1CCC1)N(Cc1ccc(-c2nnc(C(F)(F)F)o2)cc1)c1ccccc1 [Compound 21349, N-phenyl-N-(4-(5-(trifluoromethyl)-1,3,4-oxadiazol-2-yl)benzyl)azetidine-1-carboxamide]	23	430
O=C(N1CCCC1)N(Cc1ccc(-c2nnc(C(F)(F)F)o2)cc1)c1ccccc1 [Compound 21350, N-phenyl-N-(4-(5-(trifluoromethyl)-1,3,4-oxadiazol-2-yl)benzyl)pyrrolidine-1-carboxamide]	19	530
O=C(N1CCCCC1)N(Cc1ccc(-c2nnc(C(F)(F)F)o2)cc1)c1ccccc1 [Compound 21351, N-phenyl-N-(4-(5-(trifluoromethyl)-1,3,4-oxadiazol-2-yl)benzyl)piperidine-1-carboxamide]	38	261
CC(C)(C)OC(=O)N1CCN(C(=O)N(Cc2ccc(-c3nnc(C(F)(F)F)o3)cc2)c2ccccc2)CC1 [Compound 21352, Tert-butyl 4-(phenyl(4-(5-(trifluoromethyl)-1,3,4-oxadiazol-2-yl)benzyl)carbamoyl)piperazine-1-carboxylate]	9	1100
